Assay results taken from US8884013B2, “Polymorphs of Dasatinib, preparation methods and pharmaceutical compositions thereof” (Nan Jing Cavendish Bio-Engineering Technology Co., Ltd., priority 2010, dated 2014).
Each block holds one compound with its values, some of them ahead of it.

Tests used:
Assay type in all cases: physicochemical
[1] = High humidity test (room temperature, 75 ± 5% relative humidity); details: for Hydroscopic property: high humidity test; for Appearance / Content / Weight gain of moisture absorption: room temperature, 75 ± 5% relative humidity; for Change of appearance in high humidity test (in words) / Change of content in high humidity test (in words): summary of 10-day test
Method: (§1) The raw material of Polymorph I of Dasatinib monohydrate was distributed homogeneously in open petri dish with thickness of the raw material not more than 5 mm and put into thermostatic and humidostatic incubator at room temperature (about 25° C.) and 75±5% relative humidity. Sample was tested at the 5th and 10th day respectively and the results were contrasted with that of the Day 0. Results were listed in Tab. 4.
as §1, with “II” for “I”, “Dasatinib” for “Dasatinib monohydrate”, “9.” for “4.”

[2] = Observation test of long-term sample storage
[3] = Comparative test on stability: destruction experiment, related substances by HPLC
Method: The methods of destruction experiment of the Polymorph I and II of this invention (hereinafter referred to as ‘Polymorph I’ and ‘Polymorph II’) contrasting with the Polymorph A of Dasatinib prepared by the method in CN200580011916.6 (hereinafter referred to as ‘916.6 Polymorph A’) and results of stability are followed:
Oxidation destruction: 50 mg of sample weighted accurately was added into measuring flask of 100 mL, and 10 mL 30% H2O2 was added. After standing at room temperature for 2 hour, the mixture was diluted with mobile phase to scale and shook to be homogeneous, and determined by HPLC.
(§2) Acid destruction: 50 mg of sample weighted accurately was added into measuring flask of 100 mL, and 10 mL 1 mol/L HCl solution was added. After standing at 40° C. for 1 hour, an equal amount of 1 mol/L NaOH solution was added for neutralization. Then the mixture was diluted with mobile phase to scale and shook to be homogeneous, and determined by HPLC.
as §2, with “Alkali” for “Acid”, “NaOH” for “HCl”, “HCl” for “NaOH”
Illumination destruction: 50 mg of sample weighted accurately was added into measuring flask of 100 mL, dissolved and diluted with mobile phase to be the solution containing 0.5 mg Dasatinib per milliliter. After standing under illumination of 4000 lx for 6 hour, the mixture was determined by HPLC.
High temperature destruction: 50 mg of sample weighted accurately was added into measuring flask of 100 mL, dissolved and diluted with mobile phase to be the solution containing 0.5 mg Dasatinib per milliliter. After standing in homothermal water bath of 60° C. for 4 hour, the mixture was cooled and then determined by HPLC.
Related Substances Determination
HPLC conditions and system applicability: octadecylsilane bonded silica as the filler; 0.05 mol/L of potassium dihydrogen phosphate (adjusted to pH 2.5 by phosphoric acid, 0.2% triethylamine)-methanol (45:55) as the mobile phase; detection wavelength was 230 nm; the number of theoretical plates should be not less than 2000, calculated according to the peak of Dasatinib. The resolution of the peak of Dasatinib from the peaks of adjacent impurities should meet requirements.
Determination method: sample was dissolved in mobile phase to be the solution containing 0.5 mg per milliliter. 20 μL of such solution was injected into liquid chromatograph, and chromatogram was recorded until the sixfold retention time of major component peak. If there were impurities peaks in the chromatogram of sample solution, total impurities and any single impurity were calculated by normalization method on the basis of peak area.

[4] = Loss and regain of crystal water (sealed with strong dehydrating agent, then air)
[5] = 1 mol/L acid destruction (HCl, 40° C., 1 hour)
[6] = 1 mol/L alkali destruction (NaOH, 40° C., 1 hour)
[7] = high temperature destruction (60° C. water bath, 4 hour, in solution)
[8] = illumination destruction (4000 lx, 6 hour, in solution)
[9] = oxidation destruction (30% H2O2, room temperature, 2 hour)

Hydroscopic property [1]: lower | Appearance ([1]; day 0): white powder | Content ([1]; day 0): 99.7% | Weight gain of moisture absorption ([1]; day 0): 3.57% | Appearance ([1]; day 5): white powder | Content ([1]; day 5): 99.6% | Weight gain of moisture absorption ([1]; day 5): 3.73% | Appearance ([1]; day 10): white powder | Content ([1]; day 10): 99.7% | Weight gain of moisture absorption ([1]; day 10): 3.76% | Change of appearance in high humidity test (in words) [1]: no obvious change | Change of content in high humidity test (in words) [1]: no obvious change | Change of content (in words) [2]: decreased slightly | Change of related substances (in words) [2]: increased slightly | Crystal transformation [2]: not found | Impurity tR4.102 ([3]; 1 mol/L acid destruction): 0.02% | Impurity tR4.987 ([3]; 1 mol/L acid destruction): 0.01% | Impurity tR5.603 ([3]; 1 mol/L acid destruction): 0.02% | Total impurities [3, 5]: 0.06% | Impurity tR4.130 ([3]; 1 mol/L alkali destruction): 0.02% | Impurity tR5.089 ([3]; 1 mol/L alkali destruction): 0.01% | Impurity tR5.501 ([3]; 1 mol/L alkali destruction): 0.02% | Total impurities [3, 6]: 0.08% | Impurity tR4.113 ([3]; before destruction): 0.02% | Impurity tR5.037 ([3]; before destruction): 0.01% | Impurity tR5.535 ([3]; before destruction): 0.03% | Total impurities ([3]; before destruction): 0.07% | Impurity tR3.569 ([3]; high temperature destruction): 0.01% | Impurity tR4.120 ([3]; high temperature destruction): 0.02% | Impurity tR5.088 ([3]; high temperature destruction): 0.01% | Impurity tR5.520 ([3]; high temperature destruction): 0.02% | Total impurities [3, 7]: 0.05% | Impurity tR2.199 ([3]; illumination destruction): 0.04% | Impurity tR2.527 ([3]; illumination destruction): 0.06% | Impurity tR2.911 ([3]; illumination destruction): 0.33% | Impurity tR3.734 ([3]; illumination destruction): 0.11% | Impurity tR4.119 ([3]; illumination destruction): 0.04% | Impurity tR4.585 ([3]; illumination destruction): 0.08% | Impurity tR5.089 ([3]; illumination destruction): 0.03% | Impurity tR5.502 ([3]; illumination destruction): 0.14% | Impurity tR5.996 ([3]; illumination destruction): 0.08% | Impurity tR10.096 ([3]; illumination destruction): 0.66% | Total impurities [3, 8]: 1.28% | Impurity tR3.719 ([3]; oxidation destruction): 0.06% | Impurity tR4.108 ([3]; oxidation destruction): 0.02% | Impurity tR4.568 ([3]; oxidation destruction): 0.04% | Impurity tR5.090 ([3]; oxidation destruction): 0.01% | Impurity tR5.508 ([3]; oxidation destruction): 0.06% | Impurity tR6.467 ([3]; oxidation destruction): 0.05% | Impurity tR9.476 ([3]; oxidation destruction): 1.058% | Total impurities [3, 9]: 1.32%
SMILES: Cc1nc(Nc2ncc(C(=O)Nc3c(C)cccc3Cl)s2)cc(N2CCN(CCO)CC2)n1 [Polymorph I, N-(2-chloro-6-methylphenyl)-2-[[6-[4-(2-hydroxyethyl)-1-piperazinyl]-2-methyl-4-pyrimidyl]amino]-5-thiazolformamide]
Behaviour in a sealed surrounding with strong dehydrating agent ([4]; allochroic silicagel, phosphorus pentoxide etc.): lose crystal water (partly to all) step by step | Behaviour of the polymorph losing part crystal moisture in air environment ([4]; put in air environment): return to the Polymorph I with one crystal water step by step

Hydroscopic property [1]: lower | Appearance ([1]; day 0): white powder | Content ([1]; day 0): 99.8% | Weight gain of moisture absorption ([1]; day 0): 0.57% | Appearance ([1]; day 5): white powder | Content ([1]; day 5): 99.7% | Weight gain of moisture absorption ([1]; day 5): 3.63% | Appearance ([1]; day 10): white powder | Content ([1]; day 10): 99.8% | Weight gain of moisture absorption ([1]; day 10): 3.72% | Change of appearance in high humidity test (in words) [1]: no obvious change | Change of content in high humidity test (in words) [1]: no obvious change | Impurity tR4.101 ([3]; 1 mol/L acid destruction): 0.01% | Impurity tR4.993 ([3]; 1 mol/L acid destruction): 0.01% | Impurity tR5.604 ([3]; 1 mol/L acid destruction): 0.02% | Total impurities [3, 5]: 0.06% | Impurity tR3.580 ([3]; 1 mol/L alkali destruction): 0.01% | Impurity tR4.131 ([3]; 1 mol/L alkali destruction): 0.02% | Impurity tR5.092 ([3]; 1 mol/L alkali destruction): 0.01% | Impurity tR5.512 ([3]; 1 mol/L alkali destruction): 0.02% | Impurity tR9.424 ([3]; 1 mol/L alkali destruction): 0.01% | Total impurities [3, 6]: 0.08% | Impurity tR4.114 ([3]; before destruction): 0.02% | Impurity tR5.049 ([3]; before destruction): 0.01% | Impurity tR5.473 ([3]; before destruction): 0.02% | Total impurities ([3]; before destruction): 0.06% | Impurity tR3.567 ([3]; high temperature destruction): 0.01% | Impurity tR4.117 ([3]; high temperature destruction): 0.01% | Impurity tR5.085 ([3]; high temperature destruction): 0.01% | Impurity tR5.507 ([3]; high temperature destruction): 0.02% | Total impurities [3, 7]: 0.06% | Impurity tR2.197 ([3]; illumination destruction): 0.05% | Impurity tR2.526 ([3]; illumination destruction): 0.05% | Impurity tR2.910 ([3]; illumination destruction): 0.02% | Impurity tR3.733 ([3]; illumination destruction): 0.11% | Impurity tR4.116 ([3]; illumination destruction): 0.04% | Impurity tR4.582 ([3]; illumination destruction): 0.07% | Impurity tR5.084 ([3]; illumination destruction): 0.02% | Impurity tR5.496 ([3]; illumination destruction): 0.15% | Impurity tR5.990 ([3]; illumination destruction): 0.06% | Impurity tR10.084 ([3]; illumination destruction): 0.78% | Total impurities [3, 8]: 1.36% | Impurity tR4.393 ([3]; oxidation destruction): 0.02% | Impurity tR4.567 ([3]; oxidation destruction): 0.03% | Impurity tR5.090 ([3]; oxidation destruction): 0.01% | Impurity tR5.510 ([3]; oxidation destruction): 0.07% | Impurity tR6.468 ([3]; oxidation destruction): 0.04% | Impurity tR9.486 ([3]; oxidation destruction): 1.00% | Total impurities [3, 9]: 1.19%
SMILES: Cc1nc(Nc2ncc(C(=O)Nc3c(C)cccc3Cl)s2)cc(N2CCN(CCO)CC2)n1 [Polymorph II, N-(2-chloro-6-methylphenyl)-2-[[6-[4-(2-hydroxyethyl)-1-piperazinyl]-2-methyl-4-pyrimidyl]amino]-5-thiazolformamide]
